# Measurements taken from US9889176B2, “Treating renal and liver dysfunction with TLR4 antagonists” (YAQRIT LIMITED, priority 2010, dated 2018).
# Experiments:
# [1] = test system: bile duct ligated (BDL) rat; assay: Bile duct ligated (BDL) rat model of cirrhosis with or without LPS: renal dysfunction, selective gut decontamination; format: in vivo, Sprague-Dawley rats; settings: for kidney TLR4 protein expression (Western Blot) / plasma creatinine: Norfloxacin 20 mg/kg orally for 10 days; for kidney TLR4 protein expression (Western Blot): FIG. 9; for NFkBp65 expression in Kidney: FIG. 10; for plasma creatinine: FIG. 8
# Excerpt: These experiments utilised an established animal model of cirrhosis, the bile duct ligated (BDL) rat. BDL rats may be generated by methods known in the art. For example, male Sprague-Dawley rats (200-250 g) may be used for this procedure. Following anaesthetisation, a mid-line laparotamy may be performed, the bile duct exposed, triply ligated with 4.0 silk suture, and severed between the second and third ligature. The wound is then closed in layers with absorbable suture, and the animal allowed to recover in a quiet room before being returned to the animal storage facility. 6 groups of Sprague-Dawley rats were studied: n=6 in each group. […] The aims of this study was to determine (1) Whether cirrhosis is associated with an upregulation of TLR4, NFkB and proinflammatory cytokines in kidney. […] Biochemistry: Functional aspect of Kidneys was assessed by measuring plasma creatinine. Protein expression of TLR4 and NFkBp65 was assessed using a commonly used Western Blot technique. Localisation of TLR4 and Caspase (effector protein leading to cell death) was done by Immunohistochemistry. Cytokines were quantified using the ELISA bead array.
# BDL rats = assay: Brain TLR4 expression, brain water and survival in BDL rats with or without LPS; format: in vivo; settings: for brain TLR4 immunohistochemistry: FIG. 23
# Excerpt: These experiments utilised an established animal model of cirrhosis, the bile duct ligated (BDL) rat. BDL rats may be generated by methods known in the art. For example, male Sprague-Dawley rats (200-250 g) may be used for this procedure. Following anaesthetisation, a mid-line laparotamy may be performed, the bile duct exposed, triply ligated with 4.0 silk suture, and severed between the second and third ligature. The wound is then closed in layers with absorbable suture, and the animal allowed to recover in a quiet room before being returned to the animal storage facility. 6 groups of Sprague-Dawley rats were studied: n=6 in each group. […] Experiments were carried out using Sham treated and BDL rats as described above.
# [2] = BDL and BDL+LPS groups, FIG. 13
smiles,measurement,setting,value
CCn1cc(C(=O)O)c(=O)c2cc(F)c(N3CCNCC3)cc21 [Norfloxacin],kidney TNFα,"[1]; BDL and BDL+LPS groups, FIG. 11",prevented the rise
same,Kidney IL6 (local IL6 production),"[1]; BDL and BDL+LPS groups, FIG. 12",no effect
same,plasma IL6 (systemic proinflammatory cytokine),[1]; [2],reducing the secretion of cytokines
same,plasma TNFα (systemic proinflammatory cytokine),[1]; [2],reducing the secretion of cytokines
same,"kidney caspase 3 (cell death), immunohistochemistry","[1]; BDL and BDL+LPS groups, FIG. 16",reduction in the caspase positivity
same,kidney TLR4 protein expression (Western Blot),"[1]; BDL group administered LPS, p=0.02",reduced
same,NFkBp65 expression in Kidney,"[1]; BDL rats administered LPS, p=0.01",attenuated
same,plasma creatinine,"[1]; BDL rats, p=0.02",reduction
same,kidney TLR4 protein expression (Western Blot),"[1]; BDL rats, p=0.02",reduced
same,NFkBp65 expression in Kidney,"[1]; BDL rats, p=0.02",attenuated
same,renal failure induced by LPS,"[1]; BDL rats, selective gut decontamination",prevents renal failure
same,plasma creatinine,"[1]; BDL+LPS rats, p=0.03",reduction
same,brain TLR4 immunohistochemistry,BDL rats; BDL animals treated with LPS,could be prevented
same,brain TLR4 immunohistochemistry,BDL rats; BDL animals,could be prevented
same,brain TLR4 protein expression,"BDL rats; increase in BDL and BDL+LPS rats, FIG. 22",could be prevented
same,brain swelling measured by brain water,"BDL rats; increase in BDL and BDL+LPS rats, FIG. 24",could be prevented
